In patent US20110065581A1, “Liquid Compositions Containing S-(+)-Abscisic Acid in Combination with Selected Lipophilic Agents and Methods of their Preparation” (priority 2007, published 2011):
Counter-ions that a name gives are not always drawn.

Assays:
[1] = cited from earlier work
Rutgers Tomato = experiment: Relative suppression effect of selective S-(+)-ABA formulations on Rutgers Tomato (regression); format: in vivo; settings: treatment at 100 ppm
Method: (§1) Seedlings of Rutgers Tomato were sprayed with 4 ml water or treatment solution at the 3-4 leaf stage and held under well watered conditions in a greenhouse. Transpiration was measured daily for 3 days after treatment with a LiCor 1600 porometer. Transpiration readings were converted to percent of control to compensate for daily differences due to environmental factors like light intensity, humidity, and temperature.

Rutgers tomato seedlings = experiment: Transpiration rate of Rutgers tomato seedlings after foliar spray (LiCor 1600 porometer); format: in vivo; settings: for Transpiration rate as a percentage of control, Average of days 1, 2, and 3 after treatment: average of days 1-3
Method: as §1

**Q.** For `CC1=CC(=O)CC(C)(C)[C@@]1(O)/C=C/C(C)=C\C(=O)O` [abscisic acid, S-(+)-abscisic acid], which “solubility in hard water (in words)” value ([1]; hard water, compared with pure water) is on record?
**A.** even less

**Q.** What about the “highest concentration that can be achieved in pure water” value ([1]; pure water at room temperature) of the same compound?
**A.** about 3000 ppm

**Q.** What about the water solubility ([1]; water at 24° C.) of the same compound?
**A.** ~3 grams/1000 mL

**Q.** For `CC1=CC(=O)CC(C)(C)[C@@]1(O)/C=C/C(C)=C\C(=O)O` [ABA, ammonium salt of (S)-(+)-abscisic acid], which “Equivalent to s-ABA (ppm) ABA (ppm)” value (Rutgers Tomato; Rutgers Tomato, regression) is on record?
**A.** 100 ppm

**Q.** What about the “Log[ABA]” value (Rutgers Tomato; log of equivalent s-ABA ppm) of the same compound?
**A.** 2.00

**Q.** What about the “(Regression) Calculated Enhancement” value (Rutgers Tomato; relative to 100 ppm ABA) of the same compound?
**A.** 1.00

**Q.** What about the “Transpiration rate as a percentage of the transpiration rate of control plants, 1 day after treatment” value (Rutgers tomato seedlings; 75 ppm spray, 4 ml, 3-4 leaf stage) of the same compound?
**A.** 91%

**Q.** What about the “Transpiration rate as a percentage of the transpiration rate of control plants, 2 days after treatment” value (Rutgers tomato seedlings; 75 ppm spray) of the same compound?
**A.** 94%

**Q.** What about the “Transpiration rate as a percentage of the transpiration rate of control plants, 3 days after treatment” value (Rutgers tomato seedlings; 75 ppm spray) of the same compound?
**A.** 72%

**Q.** What about the “Transpiration rate as a percentage of control, Average of days 1, 2, and 3 after treatment” value (Rutgers tomato seedlings; 75 ppm spray) of the same compound?
**A.** 86%

**Q.** What about the “Transpiration rate as a percentage of the transpiration rate of control plants, 1 day after treatment” value (Rutgers tomato seedlings; 250 ppm spray) of the same compound?
**A.** 72%

**Q.** And the “Transpiration rate as a percentage of the transpiration rate of control plants, 2 days after treatment” value (Rutgers tomato seedlings; 250 ppm spray)?
**A.** 102%

**Q.** And the “Transpiration rate as a percentage of the transpiration rate of control plants, 3 days after treatment” value (Rutgers tomato seedlings; 250 ppm spray)?
**A.** 75%

**Q.** And the “Transpiration rate as a percentage of control, Average of days 1, 2, and 3 after treatment” value (Rutgers tomato seedlings; 250 ppm spray)?
**A.** 83%

**Q.** And the “Transpiration rate as a percentage of the transpiration rate of control plants, 1 day after treatment” value (Rutgers tomato seedlings; 750 ppm spray)?
**A.** 60%

**Q.** What about the “Transpiration rate as a percentage of the transpiration rate of control plants, 2 days after treatment” value (Rutgers tomato seedlings; 750 ppm spray) of the same compound?
**A.** 83%

**Q.** What about the “Transpiration rate as a percentage of the transpiration rate of control plants, 3 days after treatment” value (Rutgers tomato seedlings; 750 ppm spray) of the same compound?
**A.** 68%

**Q.** What about the “Transpiration rate as a percentage of control, Average of days 1, 2, and 3 after treatment” value (Rutgers tomato seedlings; 750 ppm spray) of the same compound?
**A.** 70%

**Q.** And the “Transpiration rate as a percentage of the transpiration rate of control plants, 1 day after treatment” value (Rutgers tomato seedlings; 2500 ppm spray)?
**A.** 36%

**Q.** What about the “Transpiration rate as a percentage of the transpiration rate of control plants, 2 days after treatment” value (Rutgers tomato seedlings; 2500 ppm spray) of the same compound?
**A.** 35%

**Q.** And the “Transpiration rate as a percentage of the transpiration rate of control plants, 3 days after treatment” value (Rutgers tomato seedlings; 2500 ppm spray)?
**A.** 43%

**Q.** And the “Transpiration rate as a percentage of control, Average of days 1, 2, and 3 after treatment” value (Rutgers tomato seedlings; 2500 ppm spray)?
**A.** 38%

**Q.** And the “Effect of spraying on transpiration (in words)” value (Rutgers tomato seedlings; Rutgers tomato seedlings, spray)?
**A.** reduced transpiration in a dose dependant manner
